# Source: BindingDB's records for doi:10.1038/nchembio.2208 (Novartis Pharma, 2016)
# Tests used:
# [1] = target: T1, Kallikrein-7 [37-253,Y180R] (Homo sapiens, UniProt P49862, Y180R); experiment: Human KLK7 Fluorescence-Lifetime Assay; settings: pH 5.6; 25 °C
# T1 construct: 37-253
# Description: The enzyme reaction was initiated by addition of the substrate Ac-[…]PT14)-Glu-NH2 (0.8 μM; Biosyntan, Berlin, Germany, product BS-#7599). Fluorescence-lifetime measurements were conducted on an Ultra Evolution fluorescence lifetime reader (TECAN, M nnedorf, Switzerland). The excitation light source was a semiconductor laser at 405 nm, producing picosecond light pulses with a selected repetition frequency of 10 MHz. The emission was collected through a 450 nm bandpass filter with 25 nm bandwidth. The measurement time per well was set to 1 s, yielding approximately 1,000 counts in the peak channel. The parameters used as assay readout were the mono-exponential lifetimes.
# [2] = target: T2, Complement factor D [24-253] (Mus musculus, UniProt P03953); experiment: Complement FD Thioesterolysis Assay; settings: pH 7.5; 25 °C
# T2 construct: 24-253
# T2 sequence (P03953 whole entry): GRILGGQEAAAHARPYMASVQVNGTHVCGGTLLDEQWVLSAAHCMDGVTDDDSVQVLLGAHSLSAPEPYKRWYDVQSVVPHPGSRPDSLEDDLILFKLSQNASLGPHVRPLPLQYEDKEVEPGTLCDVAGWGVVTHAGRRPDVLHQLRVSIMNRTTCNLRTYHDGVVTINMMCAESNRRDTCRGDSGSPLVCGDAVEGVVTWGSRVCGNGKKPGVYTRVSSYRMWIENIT
# [3] = target: T3, Complement factor B [470-764] (UniProt P00751); experiment: Human FB Proteolysis Assay (ELISA C3a); settings: pH 7.4; 4 °C
# T3 construct: 470-764
# T3 sequence (P00751 470-764): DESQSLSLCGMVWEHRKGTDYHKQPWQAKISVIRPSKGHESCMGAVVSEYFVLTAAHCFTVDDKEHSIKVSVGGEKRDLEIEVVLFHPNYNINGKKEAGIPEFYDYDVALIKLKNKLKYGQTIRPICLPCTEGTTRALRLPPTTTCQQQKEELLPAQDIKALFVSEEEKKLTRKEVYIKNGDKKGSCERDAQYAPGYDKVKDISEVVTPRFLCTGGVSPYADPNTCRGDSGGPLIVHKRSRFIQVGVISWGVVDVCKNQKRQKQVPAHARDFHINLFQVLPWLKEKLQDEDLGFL
# Description: The enzyme reaction was started by addition of C3 diluted in the assay buffer to a final concentration of 1 μM.
# [4] = target: T4, Complement factor D [24-253] (Homo sapiens, UniProt P00746); experiment: Complement FD Thioesterolysis Assay; settings: pH 7.5; 25 °C
# T4 construct: 24-253
# T4 sequence (P00746 24-253): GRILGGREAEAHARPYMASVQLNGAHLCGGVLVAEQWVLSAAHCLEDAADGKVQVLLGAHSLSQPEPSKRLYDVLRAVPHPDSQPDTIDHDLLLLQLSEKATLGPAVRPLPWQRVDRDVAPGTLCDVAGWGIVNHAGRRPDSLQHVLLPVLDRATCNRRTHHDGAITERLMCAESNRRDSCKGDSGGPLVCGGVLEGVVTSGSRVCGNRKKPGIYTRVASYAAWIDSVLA
# T1 sequence (P49862 37-253 Y180R): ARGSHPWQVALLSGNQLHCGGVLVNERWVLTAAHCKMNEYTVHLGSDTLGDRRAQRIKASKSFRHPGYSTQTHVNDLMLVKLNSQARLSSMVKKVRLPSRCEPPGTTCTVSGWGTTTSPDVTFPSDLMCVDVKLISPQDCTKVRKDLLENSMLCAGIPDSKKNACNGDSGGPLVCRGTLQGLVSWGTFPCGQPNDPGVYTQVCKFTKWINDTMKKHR
Structure (SMILES),IC50 [1] [µM],IC50 [2] [µM],IC50 [3] [µM],IC50 [4] [µM]
"C[C@@H](NC(=O)[C@@H]1C[C@H]2C[C@H]2N1C(=O)Cn1nc(C(N)=O)c2ccncc21)c1cccc(Cl)c1F [1-(2-((1R,3S,5R)-3-(((R)-1-(3-Chloro-2-fluorophenyl)ethyl)carbamoyl)-2-azabicyclo[3.1.0]hexan-2-yl)-2-oxoethyl)-1H-pyrazolo[3,4-c]pyridine-3-carboxamide (6)]",> 100,0.86,> 100,–
COC(=O)c1ccccc1CNC(=O)N1CCC[C@H]1C(=O)Nc1cccc(OC(F)(F)F)c1 [Methyl (S)-2-((2-((3-(trifluoromethoxy)phenyl)carbamoyl)pyrrolidine-1-carboxamido)-methyl)benzoate (2)],8.7,–,> 100,–
"NC(=O)c1nn(CC(=O)N2[C@@H]3C[C@@H]3C[C@H]2C(=O)Nc2cccc(Br)n2)c2ccccc12 [1-(2-((1R,3S,5R)-3-((6-Bromopyridin-2-yl)carbamoyl)-2-azabicyclo[3.1.0]hexan-2-yl)-2-oxoethyl)-1H-indazole-3-carboxamide (7)]",> 100,–,–,–
NC(=O)c1cc2cc(OCc3cccc(C(=O)O)c3)ccc2[nH]1 [3-(((2-Carbamoyl-1H-indol-5-yl)oxy)methyl)benzoic acid (4)],–,–,> 100,–

# Continued, values first:
IC50 [1] [µM],IC50 [2] [µM],IC50 [3] [µM],IC50 [4] [µM],Structure (SMILES)
> 100,–,> 100,5.8,"Cn1cc(NC(=O)N2CCC[C@H]2C(=O)NC(c2ccccc2)c2ccccc2)c2ccccc21 [(S)-N2-benzhydryl-N1-(1-methyl-1H-indol-3-yl)pyrrolidine-1,2-dicarboxamide (5)]"
0.7,–,–,> 30,"COc1ccc(CCNC(=O)[C@@H]2CCCN2C(=O)NCc2cccc3ccccc23)cc1 [(S)-N2-(4-methoxyphenethyl)-N1-(naphthalen-1-ylmethyl)pyrrolidine-1,2-dicarboxamide (1)]"
